Experimental data: ChEMBL document CHEMBL5579835, “Fluorescent octahydrophenazines as novel inhibitors against herpes simplex viruses” (Eur J Med Chem, 2024)
The source made the active and inactive calls. The rule behind the calls is not given here.

Assays:
Human alphaherpesvirus 1 [1] = assay: Antiviral activity against HSV-1 infected in African green monkey Vero cells assessed as reduction in viral growth by measuring relative cell viability at 20 uM incubated for 72 hrs by MTT assay; format: functional
Human alphaherpesvirus 1 [2] = assay: Antiviral activity against HSV-1 infected in African green monkey Vero cells assessed as downregulation of viral gD mRNA expression at 5 to 20 uM by RT-qPCR analysis; format: functional, organism-based; settings: dose 5-20 µM
Human alphaherpesvirus 1 [3] = assay: Antiviral activity against HSV-1 infected in African green monkey Vero cells assessed as downregulation of viral gD protein expression at 5 to 20 uM by Western blotting analysis; format: functional, organism-based; settings: dose 5-20 µM
[4] = Fluorescence property of compound in H2O assessed as fluorescence quantum yield in presence of fluorescein by spectrophotometric analysis; format: physicochemical
Human alphaherpesvirus 2 [5] = assay: Antiviral activity against HSV-2 infected in African green monkey Vero cells assessed as reduction in viral growth incubated for 72 hrs by MTT assay; format: functional, organism-based; settings: Human alphaherpesvirus 2, Vero
[6] = Fluorescence property of compound in cyclohexane assessed as fluorescence quantum yield in presence of fluorescein by spectrophotometric analysis; format: physicochemical
Human alphaherpesvirus 2 [7] = assay: Antiviral activity against ACV-resistant HSV-2 infected in African green monkey Vero cells assessed as reduction in viral growth incubated for 72 hrs by MTT assay; format: functional, organism-based; settings: Human alphaherpesvirus 2, Vero
[8] = Fluorescence property of compound in crystal assessed as fluorescence quantum yield in presence of fluorescein by spectrophotometric analysis; format: physicochemical
[9] = Fluorescence property of compound in crystal assessed as maximum emission wavelength in presence of fluorescein by spectrophotometric analysis; format: physicochemical
[10] = Fluorescence property of compound in H2O assessed as maximum emission wavelength in presence of fluorescein by spectrophotometric analysis; format: physicochemical
[11] = Drug accumulation in African green monkey Vero cells assessed as subcellular localization in endoplasmic reticulum at 20 uM incubated for 1 to 24 hr by Me-THP-Naph staining based confocal scanning laser microscopic analysis; format: ADME, cell-based; settings: chlorocebus sabaeus, time 1-24 hrs
Human alphaherpesvirus 1 [12] = assay: Antiviral activity against HSV-1 infected in African green monkey Vero cells assessed as reduction in viral growth incubated for 72 hrs by MTT assay; format: functional, organism-based; settings: Human alphaherpesvirus 1, Vero
[13] = Fluorescence property of compound in cyclohexane assessed as maximum emission wavelength in presence of fluorescein by spectrophotometric analysis; format: physicochemical
Human alphaherpesvirus 1 [14] = assay: Antiviral activity against HSV-1 infected in African green monkey Vero cells assessed as reduction in viral growth by measuring relative cell viability at 5 uM incubated for 72 hrs by MTT assay; format: functional
Human alphaherpesvirus 1 [15] = assay: Antiviral activity against HSV-1 infected in African green monkey Vero cells assessed as downregulation of viral gD protein expression at 20 uM pre-treated with compound for 1 hr followed by viral infection by Western blotting analysis; format: functional, organism-based
Human alphaherpesvirus 2 [16] = assay: Antiviral activity against ACV-resistant HSV-2 infected in African green monkey Vero cells assessed as downregulation of viral gD protein expression at 20 uM incubated for 48 hrs by Western blotting analysis; format: functional, organism-based
Human alphaherpesvirus 1 [17] = assay: Antiviral activity against HSV-1 infected in African green monkey Vero cells assessed as downregulation of viral gD protein expression at 10 uM incubated for 48 hrs by Western blotting analysis; format: functional, organism-based
Human alphaherpesvirus 1 [18] = assay: Antiviral activity against HSV-1 infected in African green monkey Vero cells assessed as downregulation of viral gD mRNA expression at 20 uM incubated under co-plus post treatment condition for 1 hr by RT-qPCR analysis; format: functional, organism-based
Human alphaherpesvirus 1 [19] = assay: Antiviral activity against HSV-1 infected in African green monkey Vero cells assessed as downregulation of viral VP16 mRNA expression at 20 uM incubated under co-plus post treatment condition for 1 hr by RT-qPCR analysis; format: functional, organism-based
Human alphaherpesvirus 1 [20] = assay: Antiviral activity against HSV-1 infected in African green monkey Vero cells assessed as downregulation of viral gD mRNA expression at 20 uM pre-treated with compound for 1 hr followed by viral infection by RT-qPCR analysis; format: functional, organism-based
Human alphaherpesvirus 1 [21] = assay: Antiviral activity against HSV-1 infected in African green monkey Vero cells assessed as downregulation of viral VP16 mRNA expression incubated for 48 hrs by RT-qPCR analysis; format: functional, organism-based
Human alphaherpesvirus 1 [22] = assay: Antiviral activity against HSV-1 infected in African green monkey Vero cells assessed as downregulation of viral VP16 mRNA expression at 20 uM incubated under co-treatment condition for 1 hr by RT-qPCR analysis; format: functional, organism-based
Human alphaherpesvirus 1 [23] = assay: Antiviral activity against HSV-1 infected in African green monkey Vero cells assessed as downregulation of viral gD protein expression at 20 uM measured after 2 hrs by Western blotting analysis; format: functional, organism-based
Human alphaherpesvirus 1 [24] = assay: Antiviral activity against HSV-1 infected in African green monkey Vero cells assessed as downregulation of viral ICP8 protein expression at 20 uM pre-treated with compound for 1 hr followed by viral infection by Western blotting analysis; format: functional, organism-based
Human alphaherpesvirus 1 [25] = assay: Antiviral activity against HSV-1 infected in African green monkey Vero cells assessed as downregulation of viral VP16 mRNA expression at 20 uM pre-treated with compound for 1 hr followed by viral infection by RT-qPCR analysis; format: functional, organism-based
Human alphaherpesvirus 1 [26] = assay: Antiviral activity against HSV-1 infected in African green monkey Vero cells assessed as protection of cellular morphology incubated for 24 hrs by CPE based microscopic analysis; format: functional, organism-based
Human alphaherpesvirus 1 [27] = assay: Antiviral activity against HSV-1 infected in African green monkey Vero cells assessed as downregulation of viral ICP8 protein expression at 20 uM measured after 2 hrs by Western blotting analysis; format: functional, organism-based
[28] = Cytotoxicity against human HEK293T cells incubated for 48 hrs by MTT assay; format: toxicity, cell-based, HEK-293T
Human alphaherpesvirus 1 [29] = assay: Antiviral activity against HSV-1 infected in African green monkey Vero cells assessed as downregulation of viral VP16 mRNA expression at 20 uM pre-infected with virus followed by compound treatment by RT-qPCR analysis; format: functional, organism-based
[30] = Cytotoxicity against human HEK293T cells assessed as cell viability at 80 uM incubated for 48 hrs by MTT assay relative to control; format: toxicity, cell-based, HEK-293T; settings: read-out: Activity
Human alphaherpesvirus 2 [31] = assay: Antiviral activity against HSV-2 infected in African green monkey Vero cells assessed as protection of cellular morphology incubated for 24 hrs CPE based microscopic analysis; format: functional, organism-based
HEK-293T = assay: Cytotoxicity against human HEK293T cells at 5 to 80 uM incubated for 48 hrs by MTT assay; format: toxicity, cell-based; settings: dose 5-80 µM
Human alphaherpesvirus 1 [32] = assay: Antiviral activity against HSV-1 infected in African green monkey Vero cells assessed as reduction in viral plaque formation at 20 uM pre-treated with compound for 36 to 48 hrs followed by viral infection by crystal violet staining based assay; format: functional, organism-based; settings: time 36-48 hrs
Human alphaherpesvirus 1 [33] = assay: Antiviral activity against HSV-1 infected in African green monkey Vero cells assessed as downregulation of viral gD mRNA expression incubated for 48 hrs by RT-qPCR analysis; format: functional, organism-based
Human alphaherpesvirus 1 [34] = assay: Antiviral activity against HSV-1 infected in African green monkey Vero cells assessed as downregulation of viral gD mRNA expression at 20 uM pre-infected with virus followed by compound treatment by RT-qPCR analysis; format: functional, organism-based
Human alphaherpesvirus 1 [35] = assay: Antiviral activity against HSV-1 infected in African green monkey Vero cells assessed as downregulation of viral gD mRNA expression at 20 uM incubated under co-treatment condition for 1 hr by RT-qPCR analysis; format: functional, organism-based

With `CN1CCOc2c(C#N)c3c(c(C#N)c21)N(C)C1CCCCC1N3C` (racemic) the Activity (Human alphaherpesvirus 1 [1]) was 4%.

For `CN1c2c(C#N)c(F)c(N3CCCC3)c(C#N)c2N(C)C2CCCCC21` (racemic), the Activity (Human alphaherpesvirus 1 [1]) was 9%.

For `CN1c2c(C#N)c(F)c(N3CCOCC3)c(C#N)c2N(C)C2CCCCC21` (racemic), the Activity (Human alphaherpesvirus 1 [1]) was 8%.

In the case of `CN1c2c(C#N)c(F)c(F)c(C#N)c2N(C)[C@H]2CCCC[C@@H]21`, the Activity (Human alphaherpesvirus 1 [2]) is reported as “Active”, the Activity (Human alphaherpesvirus 1 [3]) is reported as “Active” and the Activity [4] is reported as 59.1%. It also gave an EC50 (Human alphaherpesvirus 2 [5]) of 5.8 µM, an Activity [6] of 92.3% and an EC50 (Human alphaherpesvirus 2 [7]) of 7.9 µM. For the same compound, the Activity [8] was 56.9%, the Activity [9] was 560 nm and the Activity [10] was 555 nm. The Drug uptake [11] was “Active”, the Activity (Human alphaherpesvirus 1 [1]) was 40% and the EC50 (Human alphaherpesvirus 1 [12]) was 4.1 µM. For the same compound, the Activity [13] was 515 nm.

Work on `CN1c2c(F)c(C#N)c(C#N)c(F)c2N(C)C2CCCCC21` (racemic) yielded an Activity (Human alphaherpesvirus 1 [1]) of 3%.

`CN1c2c(F)c(C#N)c(F)c(C#N)c2N(C)C2CCCCC21` (racemic) showed an Activity (Human alphaherpesvirus 1 [1]) of 0%.

`CN1c2c(C#N)c(F)c(N3CCCCC3)c(C#N)c2N(C)C2CCCCC21` (racemic) showed an Activity (Human alphaherpesvirus 1 [1]) of 6%.

Work on `CN1c2c(C#N)c3c(c(C#N)c2N(C)C2CCCCC21)OCCO3` (racemic) yielded an Activity (Human alphaherpesvirus 1 [1]) of 0%.

For `N#Cc1c(F)c(F)c(C#N)c2c1NC1CCCCC1N2` (racemic), the Activity (Human alphaherpesvirus 1 [1]) was 7%.

Compound `CN1c2c(C#N)c3c(c(C#N)c2N(C)C2CCCCC21)OCCN3` (racemic) has an Activity (Human alphaherpesvirus 1 [1]) of 1%.

For `CN1c2c(C#N)c(F)c(F)c(C#N)c2N(C)[C@@H]2CCCC[C@H]21`, the Activity [4] was 57.1%, the Activity [6] was 90.3% and the Activity [8] was 57.3%. For the same compound, the Activity [9] was 560 nm, the Activity [10] was 555 nm and the Drug uptake [11] was “Active”. It also gave an Activity (Human alphaherpesvirus 1 [1]) of 8% and an Activity [13] of 515 nm.

For `CN(C)c1c(F)c(C#N)c2c(c1C#N)N(C)C1CCCCC1N2C` (racemic), the Activity (Human alphaherpesvirus 1 [1]) was 5%.

With `Nc1nc2c(ncn2COCCO)c(=O)[nH]1` [ACYCLOVIR] the Activity (Human alphaherpesvirus 1 [14]) was 81%.

For `CN1c2c(C#N)c(F)c(F)c(C#N)c2N(C)C2CCCCC21` (racemic), the Activity (Human alphaherpesvirus 1 [15]) was “Active”, the Activity (Human alphaherpesvirus 2 [16]) was “Active” and the Activity (Human alphaherpesvirus 1 [17]) was “Active”. For the same compound, the Activity (Human alphaherpesvirus 1 [18]) was “Active”, the Activity (Human alphaherpesvirus 1 [19]) was “Active” and the Activity [4] was 56.2%. For the same compound, the Activity (Human alphaherpesvirus 1 [20]) was “inactive”, the Activity (Human alphaherpesvirus 1 [21]) was “Dose-Dependent Effect” and the EC50 (Human alphaherpesvirus 2 [5]) was 11 µM. The Activity (Human alphaherpesvirus 1 [22]) was “Active”, the Activity (Human alphaherpesvirus 1 [23]) was “Active” and the Activity (Human alphaherpesvirus 1 [24]) was “Active”. For the same compound, the Activity (Human alphaherpesvirus 1 [25]) was “inactive”, the Activity (Human alphaherpesvirus 1 [26]) was “Dose-Dependent Effect” and the Activity [6] was 91.6%. The EC50 (Human alphaherpesvirus 2 [7]) was 14.9 µM, the Activity [8] was 54.4% and the Activity [9] was 558 nm. For the same compound, the Activity (Human alphaherpesvirus 1 [27]) was “Active”, the CC50 at 48 h [28] was greater than 100 µM and the Activity (Human alphaherpesvirus 1 [29]) was “Active”. For the same compound, the Activity [10] was 555 nm, the viability at 48 h, 80 µM [30] was 100% and the Drug uptake [11] was “Active”. For the same compound, the Activity (Human alphaherpesvirus 2 [31]) was “Dose-Dependent Effect”, the Activity (HEK-293T) was “Non-Toxic” and the Activity (Human alphaherpesvirus 1 [1]) was 39%. For the same compound, the Activity (Human alphaherpesvirus 1 [32]) was “Active”, the Activity (Human alphaherpesvirus 1 [33]) was “Dose-Dependent Effect” and the EC50 (Human alphaherpesvirus 1 [12]) was 9.2 µM. The Activity [13] was 515 nm, the Activity (Human alphaherpesvirus 1 [34]) was “Active” and the Activity (Human alphaherpesvirus 1 [35]) was “inactive”.
